In patent publication US20060276464A1, “Diarylsulfone sulfonamides and use thereof” (Wyeth, priority 2005, published 2006):
Values joined by “and” are separate entries in the source; they are usually repeats but may differ in a detail not shown here. Equal values may be shown once. Read-outs that look alike come from different tables or passages of the source.

Legend:
SFRP-1 [1] = biological target: T1, SFRP-1 (Homo sapiens, UniProt Q8N474); experiment: Fluorescence polarization binding assay (competitive displacement of a probe compound from SFRP-1); conditions: fluorescence anisotropy, 45 nM SFRP-1, 20 nM probe;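 also: test compound competes with a fluorescent probe held by SFRP-1, seen as a drop in probe anisotropy after incubation in darkness, with anisotropy as function of rising compound dose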
T1 sequence (Q8N474 32-314): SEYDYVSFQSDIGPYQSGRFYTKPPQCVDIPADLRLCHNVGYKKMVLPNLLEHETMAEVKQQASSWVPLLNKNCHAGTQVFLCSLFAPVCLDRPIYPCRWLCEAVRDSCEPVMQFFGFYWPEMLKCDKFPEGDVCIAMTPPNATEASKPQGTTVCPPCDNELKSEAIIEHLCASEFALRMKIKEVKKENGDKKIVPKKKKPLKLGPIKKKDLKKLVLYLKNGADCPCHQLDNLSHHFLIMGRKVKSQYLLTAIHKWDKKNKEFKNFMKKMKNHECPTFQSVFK

SFRP-1 [2] = biological target: T1, SFRP-1; experiment: Cell-based assay for in vitro measurement of SFRP-1/SARP2 antagonist activity (U2OS cells co-transfected with 16x TCF-tk-Luciferase reporter, Wnt and hSFRP-1); conditions: for fold induction at 10 µM / fold induction at 15 µM: U2OS; for fold induction at 10 µM: read-out: Fold Induction with SFRP-1, U2OS cells, single dose 10 μM, luciferase reporter, fold induction over SFRP-1 control;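 as to all read-outs here: U2OS cells co-transfected with a TCF-tk luciferase reporter, a Wnt vector, hSFRP-1 or empty vector and CMV-βgal, luciferase luminescence read in cell lysates alongside βgal activity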
[3] = read-out: Fold Induction with SFRP-1, Conc 15 μM, single dose, luciferase reporter, fold induction over SFRP-1 control, cells with SFRP-1
[4] = read-out: Fold Induction without SFRP-1, Conc 15 μM, single dose, luciferase reporter, cells without SFRP-1 (specificity control)
[5] = read-out: Fold Induction with SFRP-1, Conc 15 μM, with SFRP-1, fold induction over SFRP-1 control, single dose
[6] = read-out: Fold Induction without SFRP-1, Conc 15 μM, without SFRP-1, single dose

| SMILES | IC50 (SFRP-1 [1]) | EC50 (SFRP-1 [2]) [nM] | fold induction at 10 µM (SFRP-1 [2]) | fold induction at 15 µM (SFRP-1 [2]; [3]) | fold induction at 15 µM (SFRP-1 [2]; [4]) | fold induction at 15 µM (SFRP-1 [2]; [5]) | fold induction at 15 µM (SFRP-1 [2]; [6]) |
| --- | --- | --- | --- | --- | --- | --- | --- |
| CC(C)c1ccc(S(=O)(=O)c2cccc3cccnc23)cc1S(=O)(=O)NCCc1ccccn1 [Example 510, 2-isopropyl-N-(2-pyridin-2-ylethyl)-5-(quinolin-8-ylsulfonyl)benzenesulfonamide] | 900 nM |  |  | 1.9 | 1.1 |  |  |
| CN(CCNS(=O)(=O)c1cc(S(=O)(=O)c2ccccc2)ccc1C(F)(F)F)C(=O)N(C)C1CCNCC1 [Example 1007, N-[2-(methyl{[methyl(piperidin-4-yl)amino]carbonyl}amino)ethyl]-5-(phenylsulfonyl)-2-(trifluoromethyl)benzenesulfonamide] | 900 nM | 1520 |  |  |  |  |  |
| COc1ccc(S(=O)(=O)c2ccc(C(F)(F)F)c(S(=O)(=O)NCCC#N)c2)cc1 [Example 820, N-(2-cyanoethyl)-5-[(4-methoxyphenyl)sulfonyl]-2-(trifluoromethyl)benzenesulfonamide] | 250 nM | 797 | 4.1 |  |  |  |  |
| CCCc1ccc(S(=O)(=O)c2ccc(F)cc2)cc1S(=O)(=O)NCCC1CCOCC1 [Example 562, 5-[(4-Fluorophenyl)sulfonyl]-2-propyl-N-[2-(tetrahydro-2H-pyran-4-yl)ethyl]benzenesulfonamide] | 1600 nM |  |  | 3.3 | 1.2 |  |  |
| CCc1ccc(S(=O)(=O)c2ccccc2)cc1S(=O)(=O)NC1CCN(C(=O)OC(C)(C)C)CC1 [Example 909, tert-butyl 4-({[2-ethyl-5-(phenylsulfonyl)phenyl]sulfonyl}amino)piperidine-1-carboxylate] | 1000 nM | 2580 | 2.3 |  |  |  |  |
| COc1cccc(OC)c1C(=O)N1CCC(NS(=O)(=O)c2cc(S(=O)(=O)c3ccccc3)ccc2C(F)(F)F)CC1 [Example 707, N-[1-(2,6-dimethoxybenzoyl)piperidin-4-yl]-5-(phenylsulfonyl)-2-(trifluoromethyl)benzenesulfonamide] | 200 nM | 187 | 4.2 |  |  |  |  |
| O=S(=O)(NCCc1cccnc1)c1cc(S(=O)(=O)c2cccc(Cl)c2)ccc1C(F)(F)F [Example 755, 5-[(3-chlorophenyl)sulfonyl]-N-(2-pyridin-3-ylethyl)-2-(trifluoromethyl)benzenesulfonamide] | 160 nM | 1430 | 3.8 |  |  |  |  |
| N#CCCNS(=O)(=O)c1cc(S(=O)(=O)c2ccc(O)cc2)ccc1C(F)(F)F [Example 821, N-(2-cyanoethyl)-5-[(4-hydroxyphenyl)sulfonyl]-2-(trifluoromethyl)benzenesulfonamide] | 300 nM | 626 | 5.1 |  |  |  |  |
| Cc1ccc(S(=O)(=O)c2ccccc2)cc1S(=O)(=O)NC1CCN(C(=O)N2CCOCC2)CC1 [Example 502, 2-methyl-N-[1-(morpholin-4-ylcarbonyl)piperidin-4-yl]-5-(phenylsulfonyl)benzenesulfonamide] | 3000 nM |  |  | 2.9 | 1 |  |  |
| CC(C)(C)C(=O)N1CCC(NS(=O)(=O)c2cc(S(=O)(=O)c3ccccc3)ccc2Cl)CC1 [Example 648, 2-chloro-N-[1-(2,2-dimethylpropanoyl)piperidin-4-yl]-5-(phenylsulfonyl)benzenesulfonamide] | 5000 nM |  |  | 2.9 | 1.1 |  |  |
| Cc1ccc(S(=O)(=O)c2ccc(Br)cc2)cc1S(=O)(=O)NCCc1ccccn1 [Example 381, 5-[(4-bromophenyl)sulfonyl]-2-methyl-N-(2-pyridin-2-ylethyl)benzenesulfonamide] | 4000 nM |  |  |  |  | 2.1 | 0.8 |
| CC(C)c1ccc(S(=O)(=O)c2ccc(N(C)CCC#N)cc2)cc1S(=O)(=O)NC1CCOCC1 [Example 580, 5-({4-[(2-cyanoethyl)(methyl)amino]phenyl}sulfonyl)-2-isopropyl-N-(tetrahydro-2H-pyran-4-yl)benzenesulfonamide] | 700 nM |  |  | 2.8 | 1.3 |  |  |
| CCc1ccc(S(=O)(=O)c2ccccc2)cc1S(=O)(=O)NCCCN(C)C [Example 228, N-[3-(dimethylamino)propyl]-2-ethyl-5-(phenylsulfonyl)benzenesulfonamide] | 8000 nM and 15000 nM |  |  |  |  | 3.3 | 1.2 |
| Cc1cc2cc(S(=O)(=O)c3ccc(C(F)(F)F)c(S(=O)(=O)NC4CCNCC4)c3)ccc2n1C [Example 792, 5-[(1,2-dimethyl-1H-indol-5-yl)sulfonyl]-N-piperidin-4-yl-2-(trifluoromethyl)benzenesulfonamide] | 200 nM | 2290 | 1.4 |  |  |  |  |
| CNc1ccc(S(=O)(=O)c2ccc(C)c(S(=O)(=O)NCCCn3ccnc3)c2)cc1 [Example 310, N-[3-(1H-imidazol-1-yl)propyl]-2-methyl-5-{[4-(methylamino)phenyl]sulfonyl}benzenesulfonamide] | 400 nM |  |  |  |  | 2.9 | 1.1 |
| O=S(=O)(N[C@H]1CCCNC1)c1cc(S(=O)(=O)c2ccccc2)ccc1C(F)(F)F [Example 790, 5-(phenylsulfonyl)-N-[(3S)-piperidin-3-yl]-2-(trifluoromethyl)benzenesulfonamide] | 2000 nM |  | 3.1 |  |  |  |  |
| Cc1ccc(S(=O)(=O)c2ccccc2)cc1S(=O)(=O)NC1CCN(C(=O)c2cccc(C#N)c2)CC1 [Example 477, N-[1-(3-cyanobenzoyl)piperidin-4-yl]-2-methyl-5-(phenylsulfonyl)benzenesulfonamide] | 2200 nM |  |  |  |  | 2.1 | 1 |

Second part, the compound after the results:

| IC50 (SFRP-1 [1]) | EC50 (SFRP-1 [2]) [nM] | fold induction at 10 µM (SFRP-1 [2]) | fold induction at 15 µM (SFRP-1 [2]; [3]) | fold induction at 15 µM (SFRP-1 [2]; [4]) | fold induction at 15 µM (SFRP-1 [2]; [5]) | fold induction at 15 µM (SFRP-1 [2]; [6]) | SMILES |
| --- | --- | --- | --- | --- | --- | --- | --- |
| 250 nM | 2190 | 3.4 |  |  |  |  | CN(CCNS(=O)(=O)c1cc(S(=O)(=O)c2ccccc2)ccc1C(F)(F)F)C(=O)Nc1ccc(F)cc1F [Example 832, N-{2-[{[(2,4-difluorophenyl)amino]carbonyl}(methyl)amino]ethyl}-5-(phenylsulfonyl)-2-(trifluoromethyl)benzenesulfonamide] |
| 700 nM |  | 3.2 |  |  |  |  | O=C(NCCNS(=O)(=O)c1cc(S(=O)(=O)c2ccccc2)ccc1C(F)(F)F)c1ccncc1 [Example 783, N-[2-({[5-(Phenylsulfonyl)-2-(trifluoromethyl)phenyl]sulfonyl}amino)ethyl]isonicotinamide] |
| 3000 nM | 1820 | 2.7 |  |  |  |  | CC(C)c1ccc(S(=O)(=O)c2ccccc2)cc1S(=O)(=O)NCc1ccncc1 [Example 936, 2-isopropyl-5-(phenylsulfonyl)-N-(pyridin-4-ylmethyl)benzenesulfonamide] |
| 2700 nM |  | 1.7 |  |  |  |  | O=C(NCCNS(=O)(=O)c1cc(S(=O)(=O)c2ccccc2)ccc1C(F)(F)F)c1ccccc1 [Example 770, N-[2-({[5-(Phenylsulfonyl)-2-(trifluoromethyl)phenyl]sulfonyl}amino)ethyl]benzamide] |
| 400 nM | 2570 | 2.7 |  |  |  |  | CN(CCNS(=O)(=O)c1cc(S(=O)(=O)c2ccccc2)ccc1C(F)(F)F)S(=O)(=O)c1cccc(C(=O)O)c1 [Example 883, 3-({methyl[2-({[5-(phenylsulfonyl)-2-(trifluoromethyl)phenyl]sulfonyl}amino)ethyl]amino}sulfonyl)benzoic acid] |
| 1800 nM | 1840 | 2.6 |  |  |  |  | COC(=O)c1ccc(CNS(=O)(=O)c2cc(S(=O)(=O)c3ccccc3)ccc2C(F)(F)F)cc1 [Example 950, methyl 4-[({[5-(phenylsulfonyl)-2-(trifluoromethyl)phenyl]sulfonyl}amino)methyl]benzoate] |
| 3000 nM |  | 1.7 |  |  |  |  | O=S(=O)(NC1CCN(Cc2ccc(C(F)(F)F)cc2)CC1)c1cc(S(=O)(=O)c2ccccc2)ccc1C(F)(F)F [Example 749, 5-(phenylsulfonyl)-2-(trifluoromethyl)-N-{1-[4-(trifluoromethyl)benzyl]piperidin-4-yl}benzenesulfonamide] |
| 800 nM | 6350 | 2.6 |  |  |  |  | O=C(c1ccc(C(F)(F)F)cc1)N1CCC(NS(=O)(=O)c2cc(S(=O)(=O)c3ccccc3)ccc2Cl)CC1 [Example 658, 2-chloro-5-(phenylsulfonyl)-N-{1-[4-(trifluoromethyl)benzoyl]piperidin-4-yl}benzenesulfonamide] |
| 800 nM |  | 2.5 |  |  |  |  | CC(C)COC(=O)N(C)CCNS(=O)(=O)c1cc(S(=O)(=O)c2ccccc2)ccc1C(F)(F)F [Example 870, isobutyl methyl[2-({[5-(phenylsulfonyl)-2-(trifluoromethyl)phenyl]sulfonyl}amino)ethyl]carbamate] |
| 900 nM | 850 | 4.4 |  |  |  |  | COC(=O)c1cccc(S(=O)(=O)N2CCC(NS(=O)(=O)c3cc(S(=O)(=O)c4ccccc4)ccc3C(F)(F)F)CC2)c1 [Example 938, methyl 3-{[4-({[5-(phenylsulfonyl)-2-(trifluoromethyl)phenyl]sulfonyl}amino)piperidin-1-yl]sulfonyl}benzoate] |
